Experimental data taken from ChEMBL document CHEMBL1201862, “PubChem BioAssay data set” (2004).
Activity calls are given as the source filed them.

Columns and labels:
[1] = biological target: Voltage-gated inwardly rectifying potassium channel KCNH2 (Homo sapiens, UniProt Q12809); settings: Potency;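 further: confirmatory quantitative high-throughput screen measuring inhibition of hERG channel activity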
Cytochrome P450 1A2 = biological target: T1, Cytochrome P450 1A2 (Homo sapiens, UniProt P05177);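 further: PubChem cytochrome P450 panel assay, CYP1A2 panel member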
T1 sequence (P05177 whole entry): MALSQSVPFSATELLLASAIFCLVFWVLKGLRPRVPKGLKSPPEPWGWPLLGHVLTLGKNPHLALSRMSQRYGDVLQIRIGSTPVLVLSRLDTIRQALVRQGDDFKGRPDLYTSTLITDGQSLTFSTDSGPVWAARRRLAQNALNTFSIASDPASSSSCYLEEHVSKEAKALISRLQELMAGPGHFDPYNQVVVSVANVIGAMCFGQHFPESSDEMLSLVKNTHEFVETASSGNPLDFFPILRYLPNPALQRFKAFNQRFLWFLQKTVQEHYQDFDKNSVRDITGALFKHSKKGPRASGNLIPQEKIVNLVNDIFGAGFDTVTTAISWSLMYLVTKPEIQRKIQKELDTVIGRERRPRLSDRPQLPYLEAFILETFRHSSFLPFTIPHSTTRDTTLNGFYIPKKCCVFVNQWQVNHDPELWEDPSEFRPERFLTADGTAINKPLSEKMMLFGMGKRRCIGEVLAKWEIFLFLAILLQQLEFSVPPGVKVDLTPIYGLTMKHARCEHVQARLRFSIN

[2] = biological target: T2, Type-1 angiotensin II receptor (Homo sapiens, UniProt P30556); assay: AT1 receptor antagonists, dose response, selectivity assay for APJ receptor antagonist project, cell-based, uHTS hits (AID 463214); assay type: functional;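 further: antagonist potency against angiotensin II stimulated AT1 response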
T2 sequence (P30556 whole entry): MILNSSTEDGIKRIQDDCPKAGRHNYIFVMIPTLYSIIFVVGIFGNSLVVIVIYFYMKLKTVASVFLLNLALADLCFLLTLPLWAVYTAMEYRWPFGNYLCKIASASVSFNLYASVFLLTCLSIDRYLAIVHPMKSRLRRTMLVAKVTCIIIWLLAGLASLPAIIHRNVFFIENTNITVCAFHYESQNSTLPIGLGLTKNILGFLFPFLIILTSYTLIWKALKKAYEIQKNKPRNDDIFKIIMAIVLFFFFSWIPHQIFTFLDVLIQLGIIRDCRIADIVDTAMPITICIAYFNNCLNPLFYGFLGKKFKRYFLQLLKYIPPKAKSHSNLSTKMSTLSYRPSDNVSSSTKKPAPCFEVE

Beta-galactosidase = Beta-galactosidase (Escherichia coli, UniProt Q8VNN2); assay: PubChem AID 485352; assay type: functional
[3] = biological target: T3, Corticotropin-releasing factor receptor 2/Corticotropin-releasing factor-binding protein (Homo sapiens, UniProt P24387+Q13324); assay: activators of CRF receptor 2 with binding protein – uHTS hits, confirmation (AID 602473); assay type: functional; settings: read-out: EC50_Mean
T3 sequence (Q13324 whole entry): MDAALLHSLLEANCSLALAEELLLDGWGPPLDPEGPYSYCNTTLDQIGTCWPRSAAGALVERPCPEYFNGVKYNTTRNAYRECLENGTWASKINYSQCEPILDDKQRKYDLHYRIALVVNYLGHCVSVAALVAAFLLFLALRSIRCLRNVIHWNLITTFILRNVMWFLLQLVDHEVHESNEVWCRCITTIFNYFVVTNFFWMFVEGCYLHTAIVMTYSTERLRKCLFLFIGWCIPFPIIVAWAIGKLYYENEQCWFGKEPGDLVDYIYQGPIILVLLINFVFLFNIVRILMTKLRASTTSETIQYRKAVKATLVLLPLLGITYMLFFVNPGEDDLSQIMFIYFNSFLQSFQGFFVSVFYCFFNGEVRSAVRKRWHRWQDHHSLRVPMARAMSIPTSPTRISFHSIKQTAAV
T3 sequence (P24387 whole entry): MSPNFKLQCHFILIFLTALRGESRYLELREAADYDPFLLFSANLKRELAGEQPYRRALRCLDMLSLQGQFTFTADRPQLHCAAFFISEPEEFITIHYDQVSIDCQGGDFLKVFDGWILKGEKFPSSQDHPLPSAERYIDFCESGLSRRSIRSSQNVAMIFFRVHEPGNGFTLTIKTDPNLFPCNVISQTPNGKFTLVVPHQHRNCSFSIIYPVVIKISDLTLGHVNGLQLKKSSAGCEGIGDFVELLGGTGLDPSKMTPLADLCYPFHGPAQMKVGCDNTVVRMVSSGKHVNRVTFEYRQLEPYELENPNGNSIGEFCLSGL

CHO = assay: cytotoxicity in TLR9-MyD88 CHO cells, dose response, cytotoxicity control for TLR9-MyD88 binding inhibitor project, cell-based, luminescence (AID 588339); assay type: functional, hamster; settings: Cricetulus griseus;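 further: CHO cells stably coexpressing TLR9 and MyD88 fusions from primary screen; compound exposure lasted 48 hours before viability readout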
Beta Lactamase = Beta Lactamase (Pseudomonas aeruginosa, UniProt Q932Y6); assay: beta-lactamase reporter inhibitor potency, dose response, artefact control for TLR9-MyD88 binding inhibitor project, BLA reporter cells, FRET fluorescence (AID 588341); assay type: cell-based;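 further: cell based assay in CHO-K1 cells stably expressing beta-lactamase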
[4] = biological target: T4, RNA-binding protein pos-1 (Caenorhabditis elegans, UniProt G5EF15); assay: inhibitors of POS-1/mex-3 RNA binding, dose response, biochemical, fluorescence polarization (AID 1964);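 further: purified POS-1 fused to maltose binding protein made in E. coli; potency of compounds blocking POS-1 binding to fluorescent RNA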
T4 sequence (G5EF15 whole entry): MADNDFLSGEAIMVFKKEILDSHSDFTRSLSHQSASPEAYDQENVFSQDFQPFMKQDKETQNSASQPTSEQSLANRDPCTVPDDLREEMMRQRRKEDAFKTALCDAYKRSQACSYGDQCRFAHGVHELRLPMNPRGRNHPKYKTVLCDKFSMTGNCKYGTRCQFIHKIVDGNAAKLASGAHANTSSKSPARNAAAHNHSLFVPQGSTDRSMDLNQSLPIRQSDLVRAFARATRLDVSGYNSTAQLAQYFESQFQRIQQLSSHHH

[5] = biological target: T5, Zinc finger protein mex-5 (Caenorhabditis elegans, UniProt Q9XUB2); assay: MEX-5/TCR-2 RNA interaction inhibitors, dose response, biochemical, C. elegans, fluorescence polarization (AID 1960)
T5 sequence (Q9XUB2 whole entry): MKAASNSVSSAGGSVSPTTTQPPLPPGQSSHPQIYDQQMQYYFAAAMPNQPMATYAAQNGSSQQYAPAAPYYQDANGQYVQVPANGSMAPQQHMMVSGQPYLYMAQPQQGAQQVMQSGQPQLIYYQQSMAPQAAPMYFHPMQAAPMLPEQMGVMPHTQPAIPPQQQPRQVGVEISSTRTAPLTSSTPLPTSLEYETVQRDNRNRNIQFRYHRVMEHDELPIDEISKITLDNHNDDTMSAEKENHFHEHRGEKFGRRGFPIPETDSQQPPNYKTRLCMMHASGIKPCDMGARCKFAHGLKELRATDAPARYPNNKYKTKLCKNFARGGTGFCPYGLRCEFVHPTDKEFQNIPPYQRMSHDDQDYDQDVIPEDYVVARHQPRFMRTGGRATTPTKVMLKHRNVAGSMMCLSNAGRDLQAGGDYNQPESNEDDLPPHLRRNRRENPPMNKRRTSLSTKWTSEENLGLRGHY

HEK293 = assay: cells; assay type: functional, cell-based; settings: Homo sapiens
[6] = biological target: T6, Nuclear receptor subfamily 0 group B member 1 (Homo sapiens, UniProt P51843); assay: Luminescence-based cell-based high throughput dose response assay for inhibitors of the orphan nuclear receptor subfamily 0, group B, member 1 (DAX1; NR0B1). [Related pubchem assays (depositor defined):AID504766, AID504790]; assay type: functional
T6 sequence (P51843 whole entry): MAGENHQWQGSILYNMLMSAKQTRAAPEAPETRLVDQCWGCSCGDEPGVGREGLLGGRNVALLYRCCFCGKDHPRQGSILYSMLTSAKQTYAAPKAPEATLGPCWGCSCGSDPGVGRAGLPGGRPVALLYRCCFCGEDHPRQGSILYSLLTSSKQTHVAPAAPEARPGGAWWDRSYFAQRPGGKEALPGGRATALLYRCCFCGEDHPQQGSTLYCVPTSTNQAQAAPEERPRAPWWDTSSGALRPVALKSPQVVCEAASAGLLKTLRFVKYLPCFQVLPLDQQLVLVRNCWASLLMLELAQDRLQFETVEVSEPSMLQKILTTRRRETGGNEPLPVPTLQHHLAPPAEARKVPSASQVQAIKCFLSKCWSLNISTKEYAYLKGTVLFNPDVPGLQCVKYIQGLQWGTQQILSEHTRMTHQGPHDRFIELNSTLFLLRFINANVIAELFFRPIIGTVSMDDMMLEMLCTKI

[7] = biological target: Serine/threonine-protein phosphatase (Candida dubliniensis (strain CD36 / CBS 7987 / NCPF 3949 / NRRLY-17841) (Yeast), UniProt B9W6M3); assay: calcineurin pathway inhibitors in yeast reporter, dose response, S. cerevisiae, CDRE-lacZ, luminescence, secondary (AID 2388); assay type: functional, cell-based;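 further: yeast reporter cells carrying a calcineurin-responsive lacZ construct stimulated with calcium chloride; luminescent beta-galactosidase reporter signal in whole cells rather than isolated phosphatase activity; potency for inhibition where a drop in reporter signal means calcineurin blockade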
[8] = test system: Streptococcus sp. 'group A'; assay: growth inhibition of control SK(-) GAS strain, dose response, counter-screen for streptokinase expression inhibitor project, luminescence, kanamycin, BacTiterGlo, confirmation (AID 1900); assay type: functional, organism-based
[9] = biological target: ATP-dependent molecular chaperone HSP82 (Candida albicans (strain WO-1) (Yeast), UniProt C4YTQ8); assay: loss of DOC-induced GRE-beta-galactosidase reporter signal, dose response, Hsp90 inhibitor project, S. cerevisiae, luminescence (AID 2400); assay type: functional, cell-based;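 further: beta-galactosidase luminescence from glucocorticoid response element reporter as proxy for Hsp90 function; inhibitor potency where signal loss means Hsp90 inhibition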
Streptococcus = assay: Group A Streptococcus viability loss, dose response, counter-screen for streptokinase expression inhibitor project, luminescence, BacTiterGlo (AID 1915); assay type: functional, organism-based;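 further: potency for reduction of bacterial viability or growth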
INS1 = assay: beta cell apoptosis inhibitors, cytokine rescue, dose response, luminescence, retest (AID 449756); assay type: functional, cell-based; settings: Rattus norvegicus;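 further: cell death triggered by IL-1 beta plus TNF-alpha plus IFN-gamma mixture; protective hits raise ATP signal compared with cytokine alone wells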
[10] = C. albicans growth with fluconazole, confirmation, fluorescence, retest (AID 2467); assay type: functional, cell-based
[11] = inhibitors of intracellular T. cruzi replication, confirmation, NIH3T3 host cells, beta-gal luminescence (AID 2044); assay type: functional, cell-based;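 further: intracellular parasites grown in NIH/3T3 mouse fibroblasts as host cells; luminescent beta-galactosidase reporter signal from transgenic T. cruzi replicating inside host cells; inhibitors lower the luminescence signal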
Streptokinase A = biological target: T7, Streptokinase A (Streptococcus pyogenes serotype M1, UniProt P10520); assay: S. pyogenes streptokinase expression inhibitors, potency, dose response, plasminogen activation absorbance, OD405 (AID 1914); assay type: functional, Streptococcus pyogenes M1 GAS;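 further: secreted streptokinase activity via plasminogen activation per viability signal from cell pellet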
T7 sequence (P10520 whole entry): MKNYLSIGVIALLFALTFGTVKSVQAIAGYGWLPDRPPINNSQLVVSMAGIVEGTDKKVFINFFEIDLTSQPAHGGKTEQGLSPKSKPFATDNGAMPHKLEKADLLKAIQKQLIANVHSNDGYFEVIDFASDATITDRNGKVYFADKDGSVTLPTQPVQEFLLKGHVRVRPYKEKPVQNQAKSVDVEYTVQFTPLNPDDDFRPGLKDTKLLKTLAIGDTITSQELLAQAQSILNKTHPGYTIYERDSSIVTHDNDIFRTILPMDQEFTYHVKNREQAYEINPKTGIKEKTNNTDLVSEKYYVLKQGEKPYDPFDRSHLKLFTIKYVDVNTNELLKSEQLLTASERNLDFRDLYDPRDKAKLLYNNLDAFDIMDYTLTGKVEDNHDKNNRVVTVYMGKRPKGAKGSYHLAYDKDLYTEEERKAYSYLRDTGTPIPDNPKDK

[12] = cytotoxicity toward NIH3T3 fibroblasts, dose response, counter-screen, cell-based, ATP luminescence, mouse fibroblasts (AID 2010); assay type: functional;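 further: cells exposed to compound for about 90 hours before reading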
[13] = NIH-3T3 fibroblast cytotoxicity, dose response, cytotoxicity control, cell-based, fluorescence, Alamar Blue, secondary assay (AID 2327); assay type: functional;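 further: NIH-3T3 mouse fibroblasts cultured with fluconazole at 8 µg/mL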
[14] = biological target: Oxysterols receptor LXR-beta (Homo sapiens, UniProt P55055); assay type: functional, cell-based;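 further: Cell-based luminescence dose-response assay of agonist activity at LXR, run as a confirmatory counterscreen to a daf-12 agonist screen; HEK293 cells with Gal4-LXR fusion and GAL4-driven luciferase reporter; agonist potency from rising luciferase signal of a Gal4-LXR reporter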
[15] = biological target: Apoptotic protease-activating factor 1 (Homo sapiens, UniProt O14727); assay type: functional
Chain of Apoptotic protease-activating factor 1 (O14727 whole entry): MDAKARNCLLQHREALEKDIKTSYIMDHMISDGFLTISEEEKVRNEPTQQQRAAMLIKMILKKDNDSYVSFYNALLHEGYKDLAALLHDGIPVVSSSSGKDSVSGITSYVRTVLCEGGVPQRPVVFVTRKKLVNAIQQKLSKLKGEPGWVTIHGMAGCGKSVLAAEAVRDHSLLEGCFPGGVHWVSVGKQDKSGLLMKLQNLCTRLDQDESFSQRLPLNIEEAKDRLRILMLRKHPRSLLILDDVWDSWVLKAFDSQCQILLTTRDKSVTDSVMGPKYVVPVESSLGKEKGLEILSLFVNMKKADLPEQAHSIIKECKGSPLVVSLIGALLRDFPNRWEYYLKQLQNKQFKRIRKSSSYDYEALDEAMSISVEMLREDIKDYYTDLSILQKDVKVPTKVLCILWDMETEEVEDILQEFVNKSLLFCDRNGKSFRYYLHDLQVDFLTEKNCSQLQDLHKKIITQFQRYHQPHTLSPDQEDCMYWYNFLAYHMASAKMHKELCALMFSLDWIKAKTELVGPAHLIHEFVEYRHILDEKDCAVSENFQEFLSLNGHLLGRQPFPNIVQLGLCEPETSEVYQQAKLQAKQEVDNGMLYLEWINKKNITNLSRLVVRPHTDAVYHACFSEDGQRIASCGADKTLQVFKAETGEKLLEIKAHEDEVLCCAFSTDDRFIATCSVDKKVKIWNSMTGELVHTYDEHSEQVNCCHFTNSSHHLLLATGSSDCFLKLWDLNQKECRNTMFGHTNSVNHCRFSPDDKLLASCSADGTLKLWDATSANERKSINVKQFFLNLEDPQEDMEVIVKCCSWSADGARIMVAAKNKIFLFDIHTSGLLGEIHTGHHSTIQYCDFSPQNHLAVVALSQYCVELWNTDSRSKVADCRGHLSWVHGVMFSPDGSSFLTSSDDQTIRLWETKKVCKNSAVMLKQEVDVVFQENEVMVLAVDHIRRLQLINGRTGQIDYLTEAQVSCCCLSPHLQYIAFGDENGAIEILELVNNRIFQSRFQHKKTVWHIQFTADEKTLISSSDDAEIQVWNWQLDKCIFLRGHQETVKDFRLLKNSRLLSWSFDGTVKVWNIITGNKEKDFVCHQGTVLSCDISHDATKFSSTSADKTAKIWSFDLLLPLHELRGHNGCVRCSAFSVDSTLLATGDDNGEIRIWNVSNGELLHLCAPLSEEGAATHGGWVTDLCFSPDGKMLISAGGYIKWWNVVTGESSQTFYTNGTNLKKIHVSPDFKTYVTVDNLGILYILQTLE

Chain of Beta-galactosidase (Q8VNN2 whole entry): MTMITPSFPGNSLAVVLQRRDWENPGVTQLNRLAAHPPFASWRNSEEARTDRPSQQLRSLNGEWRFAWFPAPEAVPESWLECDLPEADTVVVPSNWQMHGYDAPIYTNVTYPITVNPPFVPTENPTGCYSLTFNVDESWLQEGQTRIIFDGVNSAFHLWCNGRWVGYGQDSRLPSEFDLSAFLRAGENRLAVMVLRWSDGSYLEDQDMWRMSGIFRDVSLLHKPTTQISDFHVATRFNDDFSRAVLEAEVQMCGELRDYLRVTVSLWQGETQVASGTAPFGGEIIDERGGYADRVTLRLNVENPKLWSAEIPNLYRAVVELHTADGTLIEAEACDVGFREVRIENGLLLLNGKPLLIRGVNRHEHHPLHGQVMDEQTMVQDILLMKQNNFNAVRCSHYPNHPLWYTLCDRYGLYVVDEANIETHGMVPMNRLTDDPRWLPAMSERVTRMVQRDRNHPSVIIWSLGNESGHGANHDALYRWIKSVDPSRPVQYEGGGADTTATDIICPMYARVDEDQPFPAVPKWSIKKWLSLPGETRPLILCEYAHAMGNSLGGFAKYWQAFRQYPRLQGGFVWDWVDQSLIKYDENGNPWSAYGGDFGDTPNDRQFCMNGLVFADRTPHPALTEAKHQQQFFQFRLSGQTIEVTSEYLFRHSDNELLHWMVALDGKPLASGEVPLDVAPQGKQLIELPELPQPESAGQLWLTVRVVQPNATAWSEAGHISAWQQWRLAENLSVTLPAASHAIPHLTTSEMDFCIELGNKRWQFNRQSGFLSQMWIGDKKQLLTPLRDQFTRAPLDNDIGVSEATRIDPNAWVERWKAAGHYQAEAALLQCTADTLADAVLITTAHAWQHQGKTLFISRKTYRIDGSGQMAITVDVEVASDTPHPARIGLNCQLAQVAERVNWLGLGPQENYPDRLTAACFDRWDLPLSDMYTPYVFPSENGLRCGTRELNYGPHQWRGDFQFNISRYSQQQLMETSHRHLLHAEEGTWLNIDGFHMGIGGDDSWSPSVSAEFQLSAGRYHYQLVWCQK
Chain of Voltage-gated inwardly rectifying potassium channel KCNH2 (Q12809 whole entry): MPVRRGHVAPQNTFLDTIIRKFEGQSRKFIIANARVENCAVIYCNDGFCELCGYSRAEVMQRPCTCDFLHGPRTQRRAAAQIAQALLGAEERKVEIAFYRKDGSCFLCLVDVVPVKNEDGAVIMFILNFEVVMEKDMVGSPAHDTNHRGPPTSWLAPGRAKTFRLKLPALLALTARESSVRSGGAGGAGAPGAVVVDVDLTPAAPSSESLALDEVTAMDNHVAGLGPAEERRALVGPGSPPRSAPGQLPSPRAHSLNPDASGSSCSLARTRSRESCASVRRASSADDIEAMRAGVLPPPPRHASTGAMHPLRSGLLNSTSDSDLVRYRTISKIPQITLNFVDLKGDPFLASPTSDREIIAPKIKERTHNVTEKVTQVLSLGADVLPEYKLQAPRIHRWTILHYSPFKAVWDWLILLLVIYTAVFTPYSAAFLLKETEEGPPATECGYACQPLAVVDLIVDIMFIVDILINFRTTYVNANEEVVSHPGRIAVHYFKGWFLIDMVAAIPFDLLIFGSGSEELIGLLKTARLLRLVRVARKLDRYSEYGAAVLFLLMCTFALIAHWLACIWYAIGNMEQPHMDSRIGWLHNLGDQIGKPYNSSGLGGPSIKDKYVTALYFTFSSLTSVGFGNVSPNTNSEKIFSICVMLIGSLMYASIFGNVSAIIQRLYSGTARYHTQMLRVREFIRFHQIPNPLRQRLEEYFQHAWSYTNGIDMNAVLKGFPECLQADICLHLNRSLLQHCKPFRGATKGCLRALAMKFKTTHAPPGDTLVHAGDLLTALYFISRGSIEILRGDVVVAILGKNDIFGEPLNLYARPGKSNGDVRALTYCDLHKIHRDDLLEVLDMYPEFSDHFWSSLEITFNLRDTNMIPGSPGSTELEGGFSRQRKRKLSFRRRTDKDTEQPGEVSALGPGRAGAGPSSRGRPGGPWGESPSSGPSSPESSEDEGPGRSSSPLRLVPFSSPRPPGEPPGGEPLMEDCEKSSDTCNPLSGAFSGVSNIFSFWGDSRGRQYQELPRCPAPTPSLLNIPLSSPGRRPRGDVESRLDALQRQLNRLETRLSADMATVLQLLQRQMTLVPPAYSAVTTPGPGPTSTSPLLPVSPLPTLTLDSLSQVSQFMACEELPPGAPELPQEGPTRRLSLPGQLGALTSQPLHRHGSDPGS
Chain of Oxysterols receptor LXR-beta (P55055 whole entry, the tested form may be a part): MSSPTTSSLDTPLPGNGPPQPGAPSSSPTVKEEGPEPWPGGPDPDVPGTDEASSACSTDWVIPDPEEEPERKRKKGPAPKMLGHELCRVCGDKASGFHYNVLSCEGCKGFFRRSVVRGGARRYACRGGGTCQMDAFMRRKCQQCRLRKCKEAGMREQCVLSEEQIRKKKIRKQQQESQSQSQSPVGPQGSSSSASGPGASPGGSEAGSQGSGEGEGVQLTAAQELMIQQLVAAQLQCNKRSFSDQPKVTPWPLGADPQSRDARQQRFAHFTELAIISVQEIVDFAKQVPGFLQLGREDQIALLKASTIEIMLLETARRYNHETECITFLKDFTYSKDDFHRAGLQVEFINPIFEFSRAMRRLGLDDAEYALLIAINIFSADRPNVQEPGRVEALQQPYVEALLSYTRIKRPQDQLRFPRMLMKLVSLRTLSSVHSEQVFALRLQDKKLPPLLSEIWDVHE
Chain of Serine/threonine-protein phosphatase (B9W6M3 whole entry): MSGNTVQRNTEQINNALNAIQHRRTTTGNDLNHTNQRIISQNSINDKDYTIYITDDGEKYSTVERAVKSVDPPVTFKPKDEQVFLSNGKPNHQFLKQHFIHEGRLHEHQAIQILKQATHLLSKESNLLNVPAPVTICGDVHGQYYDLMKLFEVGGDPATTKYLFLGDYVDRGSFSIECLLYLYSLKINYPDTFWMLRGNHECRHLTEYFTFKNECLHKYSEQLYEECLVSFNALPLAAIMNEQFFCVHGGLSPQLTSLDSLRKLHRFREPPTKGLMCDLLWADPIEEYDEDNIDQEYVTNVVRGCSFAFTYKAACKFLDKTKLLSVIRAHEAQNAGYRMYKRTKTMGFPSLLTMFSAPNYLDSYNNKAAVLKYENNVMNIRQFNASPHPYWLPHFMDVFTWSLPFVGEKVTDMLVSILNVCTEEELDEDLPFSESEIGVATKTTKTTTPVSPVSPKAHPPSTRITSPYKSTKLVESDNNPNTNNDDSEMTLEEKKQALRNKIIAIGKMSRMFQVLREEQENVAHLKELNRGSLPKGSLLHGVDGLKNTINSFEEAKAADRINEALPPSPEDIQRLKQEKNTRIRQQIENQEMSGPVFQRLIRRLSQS
Chain of Beta Lactamase (Q932Y6 whole entry, the tested form may be a part): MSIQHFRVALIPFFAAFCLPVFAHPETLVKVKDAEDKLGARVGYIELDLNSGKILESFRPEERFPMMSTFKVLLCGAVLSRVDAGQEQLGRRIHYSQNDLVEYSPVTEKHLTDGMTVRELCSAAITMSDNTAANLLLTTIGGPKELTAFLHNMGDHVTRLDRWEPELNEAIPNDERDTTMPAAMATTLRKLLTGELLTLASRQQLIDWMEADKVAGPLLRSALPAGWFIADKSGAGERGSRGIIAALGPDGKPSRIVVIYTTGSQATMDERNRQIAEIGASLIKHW

For `Nc1nc(SCc2ccc([N+](=O)[O-])cc2)c2ncn([C@@H]3O[C@H](CO)[C@H](O)[C@H]3O)c2n1`, which AC50 [1] is on record?
The AC50 was 20 µM (inconclusive).

With `Cc1ccc(C(=O)COC(=O)CNC(=O)Cc2ccccc2)cc1[N+](=O)[O-]` as the compound, how does the AC50 (Cytochrome P450 1A2) read?
Its AC50 is 25.1 µM (inconclusive).

What about the IC50 [2] of the same compound?
Its IC50 is > 40 µM (not active).

And the EC50 (Beta-galactosidase)?
The EC50 was > 40 µM (inactive).

With `COc1ccc(C(=O)c2sc3nc(C)cc(-c4cccs4)c3c2N)cc1OC` as the compound, how does the EC50 [3] read?
Its EC50 is 8.12 µM (active).

And the IC50 (CHO)?
Its IC50 is 50.2 µM (inactive).

What about the IC50 (Beta Lactamase) of the same compound?
Its IC50 is 8.85 µM (active).

And the EC50 [4]?
The EC50 was 21.2 µM (active).

What about the EC50 [5] of the same compound?
Its EC50 is 22.6 µM (active).

With `Cc1nc2c(ncn2-c2ccccc2)c(=O)n1NC(=O)CN1CCCC1` as the compound, how does the IC50 (HEK293) read?
Its IC50 is > 67.5 µM (inactive).

What about the IC50 [6] of the same compound?
Its IC50 is > 67.5 µM (inactive).

For `Nc1nonc1-n1nnc(C(=O)N/N=C/c2cc(Br)ccc2O)c1CNc1ccccc1`, which EC50 [7] is on record?
Its EC50 is > 180 µM (inactive).

And the EC50 [8]?
The EC50 was 0.392 µM (active).

And the EC50 [9]?
The EC50 was 22.6 µM (active).

And the EC50 (Streptococcus)?
Its EC50 is 3.23 µM (active).

And the AC50 (INS1)?
Its AC50 is 2.52 µM (active).

What about the EC50 [10] of the same compound?
Its EC50 is 0.178 µM (active).

What about the EC50 [11] of the same compound?
The EC50 was 1.84 µM (active).

And the EC50 (Streptokinase A)?
Its EC50 is > 150 µM (not active).

What about the EC50 [12] of the same compound?
The EC50 was 5.03 µM (active).

And the EC50 [13]?
Its EC50 is 43.8 µM (inconclusive).

With `Oc1ccccc1-c1cc(-c2ccc(F)cc2)[nH]n1` as the compound, how does the EC50 (cells) read?
Its EC50 is > 67.6 µM (inactive).

What about the IC50 (HEK293) of the same compound?
Its IC50 is > 67.5 µM (inactive).

And the EC50 [14]?
Its EC50 is > 67.6 µM (inactive).

What about the IC50 [6] of the same compound?
Its IC50 is > 67.5 µM (inactive).

With `O=C(O)c1cccc(NC2=C(N3CCOCC3)C(=O)c3ccccc3C2=O)c1` as the compound, how does the IC50 [15] read?
The IC50 was 14.8 µM (active).

Which IC50 [2] does the source give for `COC(=O)c1ccc(NCC(=O)c2ccccc2)cc1` here?
The IC50 was 13.7 µM (active).

What about the EC50 (Beta-galactosidase) of the same compound?
Its EC50 is > 40 µM (inactive).

With `CC(C)(C=O)Cc1cc(C(C)(C)C)c(O)c(C(C)(C)C)c1` as the compound, how does the AC50 [1] read?
Its AC50 is 35.5 µM (inconclusive).
